Consider 1 compound from patent US20240067651A1 (Biohaven Therapeutics Ltd., priority 2019, published 2024).

Data set [1] in a line: Stability in Simulated Gastric Fluid (SGF). In kind it is in vitro ADME. The following applies: % remaining @ 1 h. The essentials:
(§1)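 LC-MS/MS read-out of intact compound (2 μg/mL final) over 60 minutes at 37° C; gastric medium pH 1.2 with pepsin, intestinal medium pH 6.8 with pancreatin. Half-life from ln(% remaining) against time.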

Data set [2] is described as follows: Plasma Stability. Format: in vitro ADME, human. The following applies: % remaining @ 1 h. The essentials:
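Parent compound quantified by LC-MS/MS after acetonitrile precipitation, reported as percent of control remaining (triplicate). Incubation: 1 hour, 37° C, fresh human plasma, compound at 1 μM.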

Data set [3] has as its system Caco-2 monolayer. The data set is described as follows: Caco-2 Permeability Assay. In kind it is in vitro ADME, human. The following applies: Caco-2. The essentials:
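Bidirectional transport at 37 °C for 90 min, 10 μM donor concentration, with or without Pgp inhibitor, across 21-day Caco-2 monolayers with TEER >600 […] in HEPES-buffered HBSS, pH 7.4. LC-MS/MS of donor and receiver samples gives Papp, B→A/A→B efflux ratio and mass recovery.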
(Caco-2 monolayers are a common model of the intestinal barrier.)

Data set [4] can be described thus: Stability in Simulated Intestinal Fluid (SIF). The conditions noted are these: % remaining @ 1 h. Format: in vitro ADME. The method, boiled down:
as §1

Molecules are shown by their SMILES.

For `CC(C)C[C@H](NC(=O)OC(C)(C)C)C(=O)OCSc1nc(=O)c2c(ccn2COC(=O)[C@H](CC(C)C)NC(=O)OC(C)(C)C)n1CCOC(C)C` [Example 315, {[5-({[(2S)-2-{[ (tert-butoxy)carbonyl]amino}-4-methylpentanoyl]oxy}methyl)-4-oxo-1-[2-(propan-2-yloxy)ethyl]-1H,4H,5H-pyrrolo[3,2-d]pyrimidin-2-yl]sulfanyl} methyl (2S)-2-{[(tert-butoxy)carbonyl]amino}-4-methylpentanoate], the SGF in data set [1] is reported as 78%@ 1 h. Further, the “human Plasma stability” value in data set [2] amounted to 7%@ 1 h. In data set [3], the “Caco-2 Papp” value was determined as 14.1 ×10⁻⁶ cm/s. Further, the SIF in data set [4] is listed as 5%@ 1 h.
